Assay results reported in US10874730B2, “Methods for treating brain cancer using il-13r alpha 2 peptide-based compositions” (University of Pittsburgh—Of the Commonwealth System of …, priority 2004, dated 2020).

Columns and labels:
[1] = test system: preclinical brain tumor models; settings: Zhu et al., J. Transl. Med., 5: 10, 2007; cited from earlier work
[2] = solution 2 mg per cc, room temperature; cited from earlier work
[3] = Toxicity assessment (NCI Common Toxicity Criteria version 3.0), phase I/II trial; assay type: in vivo, human; settings: Patient 6, following the 154th injection of poly-ICLC
Source text: This study was designed to assess toxicity and the induction of immune and preliminary clinical responses of vaccinations with GAA-loaded αDC1 and administration of poly-ICLC (Hiltonol®, Oncovir, Inc.). The first course of vaccines consisted of 4 ultrasound-guided intranodal (i.n.) administrations of 1 or 3×10^7 αDC1/injections every 2 weeks (FIG. 19) rotating each of inguinal and axillary lymph node clusters to minimize the potential effects of injection-induced trauma in the microenvironment of the lymph nodes by repeating injections in short periods. The first 10 evaluable patients received 1×10^7 αDC1/injection (Dose Level 1), then 9 received 3×10^7 αDC1/injection (Dose Level 2). All patients received intramuscular (i.m.) injections with poly-ICLC (20 μg/kg) twice/week for 8 weeks starting on day 1. […] Starting at Week 13, these patients were treated with the same dose of additional vaccinations every 4 weeks to a maximum of 5 vaccine injections and i.m. poly-ICLC starting on the day of the first additional vaccine and twice/week (1st booster phase).
The trial was monitored continuously for treatment-related AE using National Cancer Institute Common Toxicity Criteria version 3.0. […]

[4] = Salazar et al., Neurosurgery, 38: 1096-1103, 1996; cited from earlier work
EL4-HHD-IL-13Rα2 cells = assay: Immunization of HHD mice, spleen cell cytotoxicity (4 hr 51Cr-release); assay type: in vivo; settings: for specific CTL activity against EL4-HHD-IL-13Rα2 cells: 100 μg peptide s.c. in IFA with HBVcore128-140, FIG. 7; for magnitude of CTL activities in comparison to native IL-13Rα2345-353 against EL4-HHD-IL-13Rα2 cells: p<0.05 at all effector/target ratios
Method: (§1) Control animals received IFA containing HBV helper-peptide only. Eleven days after the last immunization, the animals were sacrificed, and 5×10^6 spleen cells (SPCs) were stimulated in vitro with the same peptide that was used for in vivo stimulation (10 μM). On day 6 of culture, the bulk populations were tested for specific cytotoxicity against the EL4-HHD cells expressing IL-13Rα2 or EL4-HHD pulsed with IL-13 Rα2345-353.
(§2) EL4-HHD-IL-13Rα2 and EL4-HHD were labeled with 100 μCi of ^51Cr for 60 min, plated in 96-well V-bottomed plates (3×10^3 cell/well). Labeled EL4-HHD were pulsed with IL-13Rα2345-353 (1 μM) at 37° C. for 2 h. Control target cells were pulsed with no peptides. Stimulated SPCs were then added as effector cells and incubated at 37° C. for 4 h. One hundred μl of supernatant were collected and radioactivity measured in a gamma counter.

human glioma cells SNB19 = assay: 4-hr 51Cr-release assay, peptide-induced CTL lines against glioma cells; assay type: cell-based; settings: for anti-SNB19 glioma cell lytic activities on addition of cold T2 cells pulsed IL-13Rα2345-353: cold target competition, FIG. 4; for lysis of SNB19 in comparison to the native IL-13Rα2345-353 peptide: each E/T ratio, FIG. 3
Method: CD8+ cells derived from an HLA-A2+ glioma patient were stimulated with native IL-13Rα2345-353 (●), IL-13Rα2-V9 (∘), IL-13Rα2-A1V9 (Δ), or IL-13Rα2-E1V9 (X). On day 10, the cells were tested for lytic ability against human glioma cells SNB19 (A) and U-251 (B) (both are IL-13Rα+/HLA-A2+) using 4-Hr ^51 Cr-release assay.
The CTL lines induced with each peptide (control (A); Flu (B); IL-13Rα2345-353 (C); IL-13Rα2345-9V (D)) were incubated for 4 h with ^51Cr-labeled human glioma cell lines SNB19 at the indicated E:T ratios for evaluation of specific lytic ability (●). For the cold target inhibition assay, ^51Cr-labeled target SNB19 cells (1×10^3 cells/well) and cold T2 cells (1×10^4 cells/well) pulsed with (Δ) or without (∘) peptide IL-13Rα2345-353 were incubated with the CTLs.
The CTL lines induced with each peptide (control (A); Flu (B); IL-13Rα2345-353 (C); IL-13Rα2345-9V (D)) were incubated for 4 h with ^51Cr-labeled human glioma cell line SNB19 at the indicated E:T ratios for evaluation of specific lytic ability (●). Anti-HLA-A2 antibody (W6/32; 10 μg/ml) was added to block the function of HLA-A2 mediated recognition by the T cells (a).
(§3) The ability of modified peptides, such as IL-13Rα2-V9, to enhance the CTL activity against HLA-A2+ human glioma cells that endogenously expressed and presented IL-13Rα2-derived epitopes was examined. Human glioma cell lines U251 and SNB19 express HLA-A2 and IL-13Rα2, whereas human glioma cell line A172 expresses IL-13Rα2 but not HLA-A2 (Okano et al., 2002).
(§4) The lytic ability of the peptide-induced CTL lines against these glioma cells was examined using 4-hr ^51Cr-release assays.
To determine the specificity of the lytic activity, cold target competition experiments were performed by addition of non-radiolabeled (cold) T2 cells pulsed with IL-13Rα2345-353 peptide in the 4-h ^51Cr-release assay (FIG. 4).
Furthermore, anti-HLA-A2 antibody (W6/32) was used to block the HLA-A2 mediated signaling in the CTL reactivity.

[5] = test system: T2 cells loaded with the wild type IL-13Rα2345-353; assay: 4-hr 51Cr-release assay, peptide-induced CTL lines against peptide-loaded T2 cells; assay type: cell-based, human; settings: for lysis of T2 target cells pulsed with 100 ng/ml wild type IL-13Rα2345-353 by peptide-stimulated T cells: CD8+ T cells of HLA-A*0201+ glioma patients stimulated with peptide-pulsed DCs, day 10, FIG. 1; for magnitude of CTL reactivity against T2 cells loaded with native IL-13Rα2345-353 compared with native or IL-13Rα2-E1V9: E/T ratio 12.5, P<0.01 vs native at 0.1 and 1 nM, FIG. 1
[6] = test system: EL4-HHD cells pulsed with the native IL-13Rα2345-353; assay: Immunization of HHD mice, spleen cell cytotoxicity (4 hr 51Cr-release); assay type: in vivo; settings: 100 μg peptide s.c. in IFA with HBVcore128-140; difference not statistically significant; FIG. 6
Method: as §1, §2

human glioma cells U-251 = assay: 4-hr 51Cr-release assay, peptide-induced CTL lines against glioma cells; assay type: cell-based; settings: each E/T ratio, FIG. 3
Method: CD8+ cells derived from an HLA-A2+ glioma patient were stimulated with native IL-13Rα2345-353 (●), IL-13Rα2-V9 (∘), IL-13Rα2-A1V9 (Δ), or IL-13Rα2-E1V9 (X). On day 10, the cells were tested for lytic ability against human glioma cells SNB19 (A) and U-251 (B) (both are IL-13Rα+/HLA-A2+) using 4-Hr ^51 Cr-release assay. Against SNB19 glioma cells, p<0.05 at all E/T ratios for IL-13Rα2-V9 vs. native IL-13Rα2345-353 as well as IL-13Rα2-A1V9 vs. native IL-13Rα2345-353 by two-tailed Student-t tests. Against U251 glioma cells, p<0.05 at E/T ratio of 10 and 40 for IL-13Rα2-V9 vs. native IL-13Rα2345-353 as well as IL-13Rα2-A1V9 vs. native IL-13Rα2345-353 by two-tailed Student-t tests. […] The data presented represent one of three experiments with different donors with similar results.
as §3, §4

HLA-A2 = biological target: T1, HLA-A2 (Homo sapiens, UniProt P04439, D140Y/D185E/D98H/E176V/E277Q/G131W/G231S/I119V/I121R/I166T/I218V/L300P/L318F/N151K/N90K/P208A/P217A/Q86G/Q94H/R138H/R169H/T345S); assay: HLA-A2 binding: surface expression of HLA-A2 on T2 cells by flow cytometry; settings: 1 nM
T1 construct: expressed in transfected cells; host or cells: T2 cells
Method: The binding capability of these modified peptides was assessed using an HLA-A2 transfected T2 cell line. Aliquots of T2 cells were incubated with modified peptides or IL-13Rα2345-353 at 1 nM overnight, and then examined for the surface expression levels of HLA-A2 on T2 cells by flow cytometry. Since stable binding of HLA-A2 with peptide epitopes further stabilizes the surface expression of HLA-A2 (Francini et al., 2002; Alves et al., 2003), quantitative expression levels of HLA-A2, which is indicated by Mean Fluorescence Intensity (MFI) in Table 1, correlate with the binding affinity of the peptide-epitopes that are co-incubated with the T2 cells.

gp100 = assay: IFN-γ ELISPOT on patient PBMC, phase I/II trial; assay type: in vivo, human; settings: both dose levels combined, Wilcoxon test
Source text: This study was designed to assess toxicity and the induction of immune and preliminary clinical responses of vaccinations with GAA-loaded αDC1 and administration of poly-ICLC (Hiltonol®, Oncovir, Inc.). The first course of vaccines consisted of 4 ultrasound-guided intranodal (i.n.) administrations of 1 or 3×10^7 αDC1/injections every 2 weeks (FIG. 19) rotating each of inguinal and axillary lymph node clusters to minimize the potential effects of injection-induced trauma in the microenvironment of the lymph nodes by repeating injections in short periods. The first 10 evaluable patients received 1×10^7 αDC1/injection (Dose Level 1), then 9 received 3×10^7 αDC1/injection (Dose Level 2). All patients received intramuscular (i.m.) injections with poly-ICLC (20 μg/kg) twice/week for 8 weeks starting on day 1. […]
Enzyme-linked immunosorbent spot (ELISPOT) assays were performed as described previously (see, e.g., Kirkwood et al, Clin. Cancer Res., 15:1443-1451, 2009) with slight modifications. Briefly, batched PBMC samples were evaluated simultaneously following in vitro stimulation with autologous, irradiated PBMC loaded with wild-type IL-13Rα345-353, EphA2883-891, GP100209-217 and YKL-40202-211 for a week. […]

[7] = test system: human glioma cells expressing HLA-A2 and EphA2 protein; assay: 4-hr 51Cr-release assay, EphA2883-891-stimulated CD8+ T cells against glioma cells; assay type: cell-based; settings: stimulation with peptide-loaded DCs for 10 days, FIG. 9
Method: CD8+ T cells from an HLA-A2+ glioma patients were stimulated with DCs loaded with EphA2883-891 for 10 days. These T cells were then tested for their lytic activity against human glioma cells SNB19 (HLA-A2+, EphA2+) (▴), U251 (HLA-A2+, EphA2+) (▪) and A172 (HLA-A2−, EphA2+) (▾) by 4-hr ^51Cr-release assay.
EphA2 is an attractive tumor-associated antigen and a target for tumor-vaccines, as 5 HLA-A2 and 3 DR4 T cell epitopes have been previously identified (Tatsumi et al., 2003).

| Substance | specific CTL activity against EL4-HHD-IL-13Rα2 cells (EL4-HHD-IL-13Rα2 cells) | anti-SNB19 glioma cell lytic activities on addition of cold T2 cells pulsed IL-13Rα2345-353 (human glioma cells SNB19) | lysis of T2 target cells pulsed with 100 ng/ml wild type IL-13Rα2345-353 by peptide-stimulated T cells [5] | magnitude of CTL activities in comparison to native IL-13Rα2345-353 against EL4-HHD-IL-13Rα2 cells (EL4-HHD-IL-13Rα2 cells) | lysis of SNB19 in comparison to the native IL-13Rα2345-353 peptide (human glioma cells SNB19) | lysis of U-251 in comparison to the native IL-13Rα2345-353 peptide (human glioma cells U-251) | magnitude of CTL reactivity against T2 cells loaded with native IL-13Rα2345-353 compared with native or IL-13Rα2-E1V9 [5] | binding affinity to HLA-A2 compared with the native IL-13Rα2345-353 (HLA-A2) | further results |
| --- | --- | --- | --- | --- | --- | --- | --- | --- | --- |
| Polyinosinic-Polycytidylic acid stabilized with polylysine and carboxymethylcellulose [poly-ICLC] |  |  |  |  |  |  |  |  | effect on vaccine effects [1]: enhance the vaccine effects; stability [2]: stable at room temperature for several days; adverse event during the 2nd booster phase considered to be DLT [3]: grade 2 systemic urticaria; safety [4]: safe |
| WLPFGFILI (Amino acid residues 345-353 of Interleukin-13 Receptor alpha) [Native, reference compound] | induced a specific CTL activity | almost completely inhibited | efficiently lysed |  |  |  |  |  |  |
| WLPFGFILV (Amino acid residues 345-353 of Interleukin-13 Receptor alpha 2 with mutation of I to V at position 353) [V9, I was replaced with V at P9] | induced a specific CTL activity | almost completely inhibited | efficiently lysed | higher magnitude | higher levels of lysis | higher levels of lysis | higher magnitude | higher | CTL reactivity against EL4-HHD cells pulsed with the native peptide compared with other peptides examined [6]: trend toward higher levels of CTL reactivity; CTL activities against T2 cells loaded with IL-13Rα2345-353 compared with the wild type-induced CTL line ([5]; 1, 10 and 100 nM peptide, E/T ratio=50, FIG. 2): higher CTL activities; antigen-specific CTL response in comparison to the wild type IL-13Rα2345-353 ([5]; E/T ratio of 50, 25 and 12.5): significantly higher level |
| IMDQVPFSV (Amino acid residues 209-217 of GP100 with mutation of T to M at position 210) [gp100 epitope] |  |  |  |  |  |  |  |  | magnitude of IFN-γ ELISPOT response among the GAA peptides tested (gp100): highest magnitude of response |
| ALPFGFILV (Amino acid residues 345-353 of Interleukin-13 Receptor alpha with mutation of W to A at position 345 and I to V at position 353) [A1V9] | induced a specific CTL activity |  | efficiently lysed | higher magnitude | higher levels of lysis | higher levels of lysis | higher magnitude | higher |  |
| TLADFDPRV (Amino acid residues 883-891 of EphA2) [EphA2883-891] |  |  |  |  |  |  |  |  | anti-glioma CTL reactivity of CD8+ cells from HLA-A2+ glioma patients [7]: anti-glioma CTL reactivity has been induced |
